The target in one assay is T1, Human Factor D (Homo sapiens, UniProt P00746).
T1 construct: purified from human serum; purchased Complement Technology, Inc; host or cells: human serum (natural protein, not recombinant)
T1 sequence (P00746 26-253): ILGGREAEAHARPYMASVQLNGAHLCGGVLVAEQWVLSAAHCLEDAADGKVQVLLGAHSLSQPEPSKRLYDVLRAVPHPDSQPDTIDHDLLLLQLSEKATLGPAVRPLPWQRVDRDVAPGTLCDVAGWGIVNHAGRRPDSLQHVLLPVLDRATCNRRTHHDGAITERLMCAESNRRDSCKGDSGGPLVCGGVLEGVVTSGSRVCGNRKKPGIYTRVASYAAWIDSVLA
In words: Human Factor D Assay. In kind it is biochemical. The conditions noted are these: Human Factor D 80 nM, substrate Z-L-Lys-SBzl, assay of Example 3; read-out: IC50 (Stars). An outline of the steps: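 Serum-purified human factor D (80 nM final) preincubated 5 min at room temperature with test compound in 50 mM Tris, 1M NaCl, pH 7.5. Z-L-Lys-SBzl substrate and DTNB then added, each at 100 μM final. IC50 from nonlinear regression of reaction rate against compound concentration.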
As to `CCCCC[C@@H](C)NC(=O)[C@@H]1C[C@@]2(C)C[C@H]2N1C(=O)Cn1nc(C(C)=O)c2cc(-c3cnc(C)nc3)ccc21` [Compound 17, (1R,3S,5R)-2-(2-(3-Acetyl-5-(2-methylpyrimidin-5-yl)-1H-indazol-1-yl)acetyl)-N—((R)-heptan-2-yl)-5-methyl-2-azabicyclo[3.1.0]hexane-3-carboxamide], the IC50 is below 1000 nM.
For `CC(=O)c1nn(CC(=O)N2[C@H](C(=O)Nc3nc(Br)ccc3C)C[C@@]3(CO)C[C@@H]23)c2ccc(-c3cnc(CO)nc3)cc12` [Compound 32, (1R,3S,5S)-2-(2-(3-Acetyl-5-(2-(hydroxymethyl)pyrimidin-5-yl)-1H-indazol-1-yl)acetyl)-N-(6-bromo-3-methylpyridin-2-yl)-5-(hydroxymethyl)-2-azabicyclo[3.1.0]hexane-3-carboxamide], the half-inhibitory concentration (IC50) was below 1000 nM.
In the case of `CC(=O)c1nn(CC(=O)N2[C@H](C(=O)Nc3nc(Br)ccc3C)C[C@@]3(C)C[C@@H]23)c2c3c(c(-c4cnc(C)nc4)cc12)CCCO3` [Compound 20], the IC50 is below 1000 nM.

Staying with this assay, now noted: Human Factor D 80 nM, substrate Z-L-Lys-SBzl; Table 2; read-out: IC50 (Stars).
`COCCOC[C@@]12C[C@@H](C(=O)Nc3nc(Br)ccc3C)N(C(=O)Cn3nc(C(C)=O)c4cc(-c5cnc(CO)nc5)cc(C)c43)[C@@H]1C2` [Compound 108, (1R,3S,5S)-2-(2-(3-acetyl-5-(2-(hydroxymethyl)pyrimidin-5-yl)-7-methyl-1H-indazol-1-yl)acetyl)-N-(6-bromo-3-methylpyridin-2-yl)-5-((2-methoxyethoxy)methyl)-2-azabicyclo[3.1.0]hexane-3-carboxamide]: the IC50 is 1000 to 10000 nM.
In the case of `CC(=O)c1nn(CC(=O)N2[C@H](C(=O)Nc3nc(Br)ccc3C)C[C@@]3(C)C[C@@H]23)c2c(C)cc(-c3cnc(F)nc3)cc12` [Compound 59, (1R,3S,5R)-2-(2-(3-acetyl-5-(2-fluoropyrimidin-5-yl)-7-methyl-1H-indazol-1-yl)acetyl)-N-(6-bromo-3-methylpyridin-2-yl)-5-methyl-2-azabicyclo[3.1.0]hexane-3-carboxamide], the IC50 is below 1000 nM.
Take `CC(=O)c1nn(CC(=O)N2[C@H](C(=O)N[C@@H](c3ccccc3)C(F)(F)F)C[C@@]3(C)C[C@@H]23)c2c(C)cc(-c3cnc(C)nc3)cc12` [Compound 85, (1R,3S,5R)-2-{2-[3-acetyl-7-methyl-5-(2-methylpyrimidin-5-yl)indazol-1-yl]acetyl}-5-methyl-N-[(1S)-2,2,2-trifluoro-1-phenylethyl]-2-azabicyclo[3.1.0]hexane-3-carboxamide]: the concentration for half-maximal inhibition (IC50) was below 1000 nM.
Regarding `COCc1ncc(-c2cc(C)c3c(c2)c(C(C)=O)nn3CC(=O)N2[C@H](C(=O)Nc3nc(Br)ccc3C)C[C@@]3(C)C[C@@H]23)cn1` [Compound 60, (1R,3S,5R)-2-(2-(3-acetyl-5-(2-(methoxymethyl)pyrimidin-5-yl)-7-methyl-11H-indazol-1-yl)acetyl)-N-(6-bromo-3-methylpyridin-2-yl)-5-methyl-2-azabicyclo[3.1.0]hexane-3-carboxamide], the IC50 is below 1000 nM.
Regarding `CC(=O)c1nn(CC(=O)N2[C@H](C(=O)NC(C)CC3CCC3)C[C@@]3(C)C[C@@H]23)c2c(C)cc(-c3cnc(C)nc3)cc12` (stereo partly shown) [Compound 134], the IC50 was below 1000 nM.
Still for that read-out and setting: under `CC(=O)c1nn(CC(=O)N2[C@H](C(=O)Nc3nc(Br)ccc3C)C[C@@]3(C)C[C@@H]23)c2ccc(-c3cncc(C4(C(=O)O)CC4)c3)cc12` [Compound 98, 1-(5-(3-acetyl-1-(2-((1R,3S,5R)-3-((6-bromo-3-methylpyridin-2-yl)carbamoyl)-5-methyl-2-azabicyclo[3.1.0]hexan-2-yl)-2-oxoethyl)-1H-indazol-5-yl)pyridin-3-yl)cyclopropane-1-carboxylic acid] stands below 1000 nM.
On to `CC(=O)c1nn(CC(=O)N2[C@H](C(=O)Nc3nc(Br)c(F)cc3C)C[C@@]3(C)C[C@@H]23)c2c(C)cc(-c3cnc(CO)cn3)cc12` [Compound 131, (1R,3S,5R)-2-(2-(3-acetyl-5-(5-(hydroxymethyl)pyrazin-2-yl)-7-methyl-1H-indazol-1-yl)acetyl)-N-(6-bromo-5-fluoro-3-methylpyridin-2-yl)-5-methyl-2-azabicyclo[3.1.0]hexane-3-carboxamide], for which the IC50 was below 1000 nM.
With `COc1ncc(-c2cc3c(C(C)=O)cn(CC(=O)N4[C@H](C(=O)Nc5nc(C(F)(F)F)ccc5C)C[C@@]5(C)C[C@@H]45)c3c(C)n2)cn1` [Compound 201, (1R,3S,5R)-2-(2-(3-acetyl-5-(2-methoxypyrimidin-5-yl)-7-methyl-1H-pyrrolo[2,3-c]pyridin-1-yl)acetyl)-5-methyl-N-(3-methyl-6-(trifluoromethyl)pyridin-2-yl)-2-azabicyclo[3.1.0]hexane-3-carboxamide], the half-maximal inhibitory concentration (IC50) is below 1000 nM.
`CC(=O)c1cn(CC(=O)N2[C@H](C(=O)Nc3nc(Br)ccc3C)C[C@@]3(C)C[C@@H]23)c2c(C)cc(-c3cnc(C(C)F)nc3)cc12` (stereo partly drawn) [Compound 216, (1R,3S,5R)-2-(2-(3-acetyl-5-(2-(1-fluoroethyl)pyrimidin-5-yl)-7-methyl-1H-indol-1-yl)acetyl)-N-(6-bromo-3-methylpyridin-2-yl)-5-methyl-2-azabicyclo[3.1.0]hexane-3-carboxamide]: the half-inhibitory concentration (IC50) was below 1000 nM.
Still for that read-out and setting: under `COC(=O)c1ncc(-c2cc(C)c3c(c2)c(C(C)=O)nn3CC(=O)N2[C@H](C(=O)Nc3nc(C(F)(F)F)ccc3C)C[C@@]3(C)C[C@@H]23)cn1` [Compound 50, Methyl 5-(3-acetyl-7-methyl-1-(2-((1R,3S,5R)-5-methyl-3-((3-methyl-6-(trifluoromethyl)pyridin-2-yl)carbamoyl)-2-azabicyclo[3.1.0]hexan-2-yl)-2-oxoethyl)-1H-indazol-5-yl)pyrimidine-2-carboxylate] stands below 1000 nM; under `CC(=O)c1cn(CC(=O)N2C[C@H]3C[C@H]3[C@H]2C(=O)Nc2nc(Br)c(F)cc2C)c2c(C3CC3)cc(-c3cnc(C)nc3)cc12` [Compound 163], below 1000 nM; under `COC(C)(C)CNC(=O)[C@@H]1C[C@@]2(C)C[C@H]2N1C(=O)Cn1nc(C(C)=O)c2cc(-c3cnc(C)nc3)cc(C)c21` [Compound 87, (1R,3S,5R)-2-{2-[3-acetyl-7-methyl-5-(2-methylpyrimidin-5-yl)indazol-1-yl]acetyl}-N-(2-methoxy-2-methylpropyl)-5-methyl-2-azabicyclo[3.1.0]hexane-3-carboxamide], below 1000 nM.
In the case of `CC(=O)c1nn(CC(=O)N2[C@H](C(=O)Nc3cc(C)cc(Br)n3)C[C@@]3(C)C[C@@H]23)c2c(C)cc(-c3cnc(CO)nc3)cc12` [Compound 93, (1R,3S,5R)-2-(2-(3-acetyl-5-(2-(hydroxymethyl)pyrimidin-5-yl)-7-methyl-1H-indazol-1-yl)acetyl)-N-(6-bromo-4-methylpyridin-2-yl)-5-methyl-2-azabicyclo[3.1.0]hexane-3-carboxamide], the IC50 is below 1000 nM.
The same measure, in the same setting: under `CC(=O)c1nn(CC(=O)N2[C@H](C(=O)N[C@@H](C(C)(C)C)C(F)(F)F)C[C@@]3(C)C[C@@H]23)c2c(C)cc(-c3cnc(C)nc3)cc12` [Compound 154, (1R,3S,5R)-2-{2-[3-acetyl-7-methyl-5-(2-methylpyrimidin-5-yl)indazol-1-yl]acetyl}-5-methyl-N-[(2S)-1,1,1-trifluoro-3,3-dimethylbutan-2-yl]-2-azabicyclo[3.1.0]hexane-3-carboxamide] stands 1000 to 10000 nM; under `Cc1ncc(-c2cc3c(C(N)=O)nn(CC(=O)N4[C@H](C(=O)Nc5nc(Br)ccc5C5CC5)C[C@@]5(C)C[C@@H]45)c3c(C)n2)cn1` [Compound 112, 1-{2-[3-(6-Bromo-3-cyclopropyl-pyridin-2-ylcarbamoyl)-5-methyl-2-aza-bicyclo[3.1.0]hex-2-yl]-2-oxo-ethyl}-7-methyl-5-(2-methyl-pyrimidin-5-yl)-1H-pyrazolo[3,4-c]pyridine-3-carboxylic acid amide], below 1000 nM; under `CC(=O)c1nn(CC(=O)N2[C@H](C(=O)Nc3ccc(F)c(Br)n3)C[C@@]3(C)C[C@@H]23)c2c(C)cc(-c3cnc(C(C)O)nc3)cc12` (stereo partly drawn) [Compound 125, (1R,3S,5R)-2-(2-(3-acetyl-5-(2-(1-hydroxyethyl)pyrimidin-5-yl)-7-methyl-11H-indazol-1-yl)acetyl)-N-(6-bromo-5-fluoropyridin-2-yl)-5-methyl-2-azabicyclo[3.1.0]hexane-3-carboxamide], below 1000 nM.
On the same count and under the same terms, under `COc1cc(Br)nc(NC(=O)[C@@H]2C[C@@]3(C)C[C@H]3N2C(=O)Cn2nc(C(C)=O)c3cc(-c4cnc(CO)nc4)ccc32)c1` [Compound 67, (1R,3S,5R)-2-(2-(3-acetyl-5-(2-(hydroxymethyl)pyrimidin-5-yl)-1H-indazol-1-yl)acetyl)-N-(6-bromo-4-methoxypyridin-2-yl)-5-methyl-2-azabicyclo[3.1.0]hexane-3-carboxamide] stands below 1000 nM; under `COCCOC[C@@]12C[C@@H](C(=O)Nc3nc(Br)ccc3C)N(C(=O)Cn3nc(C(C)=O)c4cc(-c5cnc(C)nc5)cc(C)c43)[C@@H]1C2` [Compound 107, (1R,3S,5S)-2-(2-(3-acetyl-7-methyl-5-(2-methylpyrimidin-5-yl)-1H-indazol-1-yl)acetyl)-N-(6-bromo-3-methylpyridin-2-yl)-5-((2-methoxyethoxy)methyl)-2-azabicyclo[3.1.0]hexane-3-carboxamide], below 1000 nM; under `CC(=O)c1nn(CC(=O)N2[C@H](C(=O)Nc3nc(Br)ccc3C)C[C@@]3(C)C[C@@H]23)c2c(C)cc(-c3cnc(C(C)O)nc3)cc12` (stereo partly drawn) [Compound 95, (1R,3S,5R)-2-(2-(3-acetyl-5-(2-(1-hydroxyethyl)pyrimidin-5-yl)-7-methyl-1H-indazol-1-yl)acetyl)-N-(6-bromo-3-methylpyridin-2-yl)-5-methyl-2-azabicyclo[3.1.0]hexane-3-carboxamide], below 1000 nM.

The values are drawn from patent US20230022157A1 (Achillion Pharmaceuticals, Inc., priority 2018, published 2023).
